In patent US4962112A, “7-(2-methyl-4-aminopyrrolidinyl)naphthryidine and quinoline compounds” (Abbott Laboratories, priority 1988, dated 1990):
Values after ≈ are worked out from the molar mass of the structure shown.

Tests used:
PROVIDENCIA STUARTII = test: In vitro antibacterial activity, agar dilution MIC; assay type: cell-based; details: 18 h
S. agalactiae = test: In vitro antibacterial activity, agar dilution MIC; assay type: cell-based; details: Streptococcus agalactiae, 18 h; STR[…] 508 (Table 2)
ACINETOBACTER SP = test: In vitro antibacterial activity, agar dilution MIC; assay type: cell-based; details: 18 h; ACINETOBACTER SP CMX 669
[1] = tested on: STAPHYLOCOCCUS EPIDERMIDIS; test: In vitro antibacterial activity, agar dilution MIC; assay type: cell-based; details: 18 h; STAPHYLOCOCCUS EPIDERMIDIS 3519
PSEUDOMONAS CEPACIA = test: In vitro antibacterial activity, agar dilution MIC; assay type: cell-based; details: Burkholderia cepacia, 18 h; PSEUDOMONAS CEPACIA 296I
P. aeruginosa = test: In vitro antibacterial activity, agar dilution MIC; assay type: cell-based; details: Pseudomonas aeruginosa, 18 h
S. pyogenes = test: In vitro antibacterial activity, agar dilution MIC; assay type: cell-based; details: Streptococcus pyogenes, 18 h
S. aureus = test: In vitro antibacterial activity, agar dilution MIC; assay type: cell-based; details: Staphylococcus aureus, 18 h
Procedure: (§1) The in vitro antibacterial activity of the test compound was determined by conventional agar dilution procedures. The organisms were grown overnight in brain-heart infusion (BHI) broth (Difco 0037-01-6) at 36° C. Twofold dilutions of the stock solution ([…]) of the test compound were made in BHI agar obtain a test concentration ranging from […]. The plate was inoculated with approximately 10^4 organisms. It was then incubated at 36° C. for 18 h. the minimal inhibitory concentration was the lowest concentration of the test compound that yielded no visible growth on the plate.

M[…] = test: In vitro antibacterial activity, agar dilution MIC; assay type: cell-based; details: Micrococcus luteus
Procedure: as §1

EN[…] = test: In vitro antibacterial activity, agar dilution MIC; assay type: cell-based; details: Enterococcus faecium, ATCC8043, 18 h; EN[…] ATCC 8043
Procedure: as §1

E. coli = test: In vitro antibacterial activity, agar dilution MIC; assay type: cell-based; details: Escherichia coli, 18 h
Procedure: as §1

[2] = Aqueous solubility in Ringer's buffer at pH 7.5 (HPLC); assay type: physicochemical
Procedure: A known excess weight of the compound was shaken overnight with a known volume of Ringer's buffer (bicarbonate buffer containing sodium, potassium, calcium and magnesium ions, initially adjusted to pH 7.5). The contents were filtered, and the clear filtrate was analyzed after appropriate dilution using HPLC (UV absorbance detection).

[3] = Oral pharmacokinetics, blood level by disk agar diffusion bioassay; assay type: in vivo, Mice; details: for Blood Level of Compound: mice; for serum concentrations / blood levels (in words): versus analogs A and B at 100 mg/kg
Procedure: Mice were administered the quantity of compound indicated orally, as a single dose. At the specified time intervals, blood was collected from groups of five mice. All samples were assayed by a disk agar diffusion bioassay procedure. Bacillus subtilis 6633 or Klebsiella pneumoniae 10032 were used as the assay organisms, and seek agar medium No. 1 (BBL Microbiology Systems; Cockeysville, MD) was the growth medium. The plates were incubated at 32° C for 18 h and read with an image analyzer (Optomax Inc.).

STREPTOCOCCUS BOVIS = test: In vitro antibacterial activity, agar dilution MIC; assay type: cell-based; details: Streptococcus equinus, 18 h; STREPTOCOCCUS BOVIS A5196
K. pneumoniae = test: In vitro antibacterial activity, agar dilution MIC; assay type: cell-based, Klebsiella pneumoniae; details: ATCC8045, 18 h; KLEBSIELLA PNEUMONIAE ATCC 8045; read-out: MIC
[4] = STREPTOCOCCUS PYOGENES 930 CONST
[5] = ATCC6538P, STAPHYLOCOCCUS AUREUS ATCC 6538P
[6] = compared with 2-unsubstituted aminopyrrolidine analogs

| SMILES | MIC (PROVIDENCIA STUARTII) | MIC (S. agalactiae) | MIC (ACINETOBACTER SP) | MIC [1] | MIC (PSEUDOMONAS CEPACIA) | MIC (P. aeruginosa; PSEUDOMONAS AERUGINOSA A5007) | MIC (P. aeruginosa; PSEUDOMONAS AERUGINOSA BMH10) | MIC (P. aeruginosa; PSEUDOMONAS AERUGINOSA K799/61) | MIC (P. aeruginosa; PSEUDOMONAS AERUGINOSA K799/WT) | MIC (S. pyogenes; [4]) | MIC (S. pyogenes; STREPTOCOCCUS PYOGENES EE561) | MIC (S. aureus; STAPHYLOCOCCUS AUREUS 45) | MIC (S. aureus; STAPHYLOCOCCUS AUREUS 45RAR2) | MIC (S. aureus; STAPHYLOCOCCUS AUREUS A5177) | MIC (S. aureus; STAPHYLOCOCCUS AUREUS CMX 503A) | MIC (S. aureus; STAPHYLOCOCCUS AUREUS CMX 553) | MIC (S. aureus; STAPHYLOCOCCUS AUREUS CMX 6868) | MIC (S. aureus; [5]) | MIC (M[…]; ATCC4698, 18 h, M[…] ATCC 4698) | MIC (M[…]; ATCC9341, 18 h, M[…] ATCC 9341) | other results |
| --- | --- | --- | --- | --- | --- | --- | --- | --- | --- | --- | --- | --- | --- | --- | --- | --- | --- | --- | --- | --- | --- |
| C[C@H]1C[C@H](N)CN1c1cc2c(cc1F)c(=O)c(C(=O)O)cn2-c1ccc(F)cc1F [Example 6] | 1.56 µg/mL (≈ 3.74 µM) | 0.1 µg/mL (≈ 0.24 µM) | 0.1 µg/mL (≈ 0.24 µM) | 0.2 µg/mL (≈ 0.479 µM) | 12.5 µg/mL (≈ 29.9 µM) | 3.1 µg/mL (≈ 7.43 µM) | 0.78 µg/mL (≈ 1.87 µM) | 0.02 µg/mL (≈ 0.0479 µM) | 0.39 µg/mL (≈ 0.934 µM) | 0.2 µg/mL (≈ 0.479 µM) | 0.2 µg/mL (≈ 0.479 µM) | 0.1 µg/mL (≈ 0.24 µM) | 0.1 µg/mL (≈ 0.24 µM) | 0.2 µg/mL (≈ 0.479 µM) | 0.1 µg/mL (≈ 0.24 µM) | 0.1 µg/mL (≈ 0.24 µM) | 0.05 µg/mL (≈ 0.12 µM) | 0.02 µg/mL (≈ 0.0479 µM) | 0.1 µg/mL (≈ 0.24 µM) | 0.2 µg/mL (≈ 0.479 µM) | MIC (EN[…]): 0.1 µg/mL (≈ 0.24 µM); MIC (E. coli; ESCHERICHIA COLI DC-2): 0.2 µg/mL (≈ 0.479 µM); MIC (E. coli; ESCHERICHIA COLI H560): 0.2 µg/mL (≈ 0.479 µM); MIC (E. coli; ESCHERICHIA COLI JUHL): 0.05 µg/mL (≈ 0.12 µM); MIC (E. coli; ESCHERICHIA COLI KNK 437): 0.2 µg/mL (≈ 0.479 µM); MIC (E. coli; ESCHERICHIA COLI SS): ≤ 0.002 µg/mL; AQUEOUS SOLUBILITY ([2]; at pH 7.5 in Ringer's buffer): 0.053 mg/mL; solubility properties (in words) [2, 6]: significantly improved aqueous solubility properties; oral absorption properties (in words) [3, 6]: greatly improved oral absorption properties; Blood Level of Compound ([3]; oral 25 mg/kg, t = 0.5 h): 3700 ng/mL; Blood Level of Compound ([3]; oral 25 mg/kg, t = 1.0 h): 4300 ng/mL; Blood Level of Compound ([3]; oral 25 mg/kg, t = 2.0 h): 2800 ng/mL; Blood Level of Compound ([3]; oral 25 mg/kg, t = 3.0 h): 1100 ng/mL; Blood Level of Compound ([3]; oral 25 mg/kg, t = 6.0 h): 100 ng/mL; Blood Level of Compound ([3]; oral 25 mg/kg, t = 24.0 h): 0 ng/mL; serum concentrations / blood levels (in words) ([3]; oral 25 mg/kg): still achieve better blood; serum concentrations / blood levels (in words) ([3]; oral 25 mg/kg, listed as Compound 6): higher serum concentrations; MIC (STREPTOCOCCUS BOVIS): 0.2 µg/mL (≈ 0.479 µM); MIC (K. pneumoniae): 0.02 µg/mL (≈ 0.0479 µM) |
| NC1CCN(c2cc3c(cc2F)c(=O)c(C(=O)O)cn3-c2ccc(F)cc2F)C1 (stereo not shown) [Example B, 7-(3-Amino-pyrrolidin-1-yl)-1-(2,4-difluorophenyl)-1,4-dihydro-6-fluoro--oxo-quinoline-3-carboxylic acid, reference compound] | 1.56 µg/mL (≈ 3.87 µM) | 0.2 µg/mL (≈ 0.496 µM) | 0.05 µg/mL (≈ 0.124 µM) | 0.1 µg/mL (≈ 0.248 µM) | 6.2 µg/mL (≈ 15.4 µM) | 0.2 µg/mL (≈ 0.496 µM) | 0.1 µg/mL (≈ 0.248 µM) | 0.05 µg/mL (≈ 0.124 µM) | 0.2 µg/mL (≈ 0.496 µM) | 0.1 µg/mL (≈ 0.248 µM) | 0.2 µg/mL (≈ 0.496 µM) | 0.1 µg/mL (≈ 0.248 µM) | 0.1 µg/mL (≈ 0.248 µM) | 0.05 µg/mL (≈ 0.124 µM) | 0.05 µg/mL (≈ 0.124 µM) | 0.05 µg/mL (≈ 0.124 µM) | 0.05 µg/mL (≈ 0.124 µM) | 0.02 µg/mL (≈ 0.0496 µM) | 0.78 µg/mL (≈ 1.93 µM) | 0.39 µg/mL (≈ 0.967 µM) | MIC (EN[…]): 0.2 µg/mL (≈ 0.496 µM); MIC (E. coli; ESCHERICHIA COLI DC-2): 0.2 µg/mL (≈ 0.496 µM); MIC (E. coli; ESCHERICHIA COLI H560): 0.02 µg/mL (≈ 0.0496 µM); MIC (E. coli; ESCHERICHIA COLI JUHL): 0.02 µg/mL (≈ 0.0496 µM); MIC (E. coli; ESCHERICHIA COLI KNK 437): 0.2 µg/mL (≈ 0.496 µM); MIC (E. coli; ESCHERICHIA COLI SS): 0.002 µg/mL (≈ 0.00496 µM); solubility ([2]; at pH 7.5 in Ringer's buffer): 8 µg/mL (≈ 19.8 µM); Blood Level of Compound ([3]; oral 100 mg/kg, t = 1.0 h): 500 ng/mL; Blood Level of Compound ([3]; oral 100 mg/kg, t = 2.0 h): 700 ng/mL; Blood Level of Compound ([3]; oral 100 mg/kg, t = 3.0 h): 900 ng/mL; Blood Level of Compound ([3]; oral 100 mg/kg, t = 6.0 h): 700 ng/mL; Blood Level of Compound ([3]; oral 100 mg/kg, t = 24.0 h): 0 ng/mL; MIC (STREPTOCOCCUS BOVIS): 0.39 µg/mL (≈ 0.967 µM); MIC (K. pneumoniae): 0.01 µg/mL (≈ 0.0248 µM) |
